How the values were obtained:
[1] = molecular target: bovine pancreatic DNase I (Bos taurus, UniProt P00639); assay: in vitro DNase I inhibition assay (spectrophotometric, absorbance of oligonucleotides at 260 nm); type: biochemical
Method: Compounds 3a–c were included in an in vitro DNase I inhibition assay.
Evaluation of DNase I inhibition. In vitro determination of the inhibitory activity of compounds 3a–c against bovine pancreatic DNase I was performed using the spectrophotometric method described by Kolarević et al., which is based on measuring the absorbance of the formed oligonucleotides at 260 nm.

Chain of bovine pancreatic DNase I (P00639 23-282): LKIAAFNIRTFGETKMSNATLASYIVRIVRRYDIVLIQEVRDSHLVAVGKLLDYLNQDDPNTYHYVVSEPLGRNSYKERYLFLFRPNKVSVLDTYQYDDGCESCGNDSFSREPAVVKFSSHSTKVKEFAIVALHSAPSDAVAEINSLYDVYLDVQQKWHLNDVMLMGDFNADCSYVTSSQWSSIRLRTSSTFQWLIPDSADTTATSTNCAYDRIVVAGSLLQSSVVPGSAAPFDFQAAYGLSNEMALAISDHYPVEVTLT

CCOc1c(NCCc2cccnc2)c(=O)c1=O [Compound 3a]
melting point: 139.8 to 141.2 °C | IC50 [1]: 54.5 ± 8.07 µM

CCOc1c(NCCc2ccncc2)c(=O)c1=O [Compound 3b]
IC50 [1]: 57.8 ± 9.67 µM

CCOc1c(NC(C)Cc2cccnc2)c(=O)c1=O (centres unmarked) [Compound 3c, 3-Ethoxy-4-((1-(pyridin-3-yl)propan-2-yl)amino)cyclobut-3-ene-1,2-dione]
IC50 [1]: 48 ± 7.98 µM

CN(C)c1ccc(C(=C2C=CC(=[N+](C)C)C=C2)c2ccc(N(C)C)cc2)cc1 [crystal violet, reference compound]
IC50 [1]: 358 ± 40.7 µM

Reference: publication PMC9863136, “Synthesis and DNase I Inhibitory Properties of New Squaramides” (Molecules, 2023)
